In publication PMC4113456, “Atypical Signaling and Functional Desensitization Response of MAS Receptor to Peptide Ligands” (PLoS ONE, 2014):
Where a chain is given by its changes, count along the chain named. Read-outs that look alike come from different tables or passages of the source. Non-standard residues stand in square brackets, D forms with d. Residues, ends and D or L forms follow the SMILES beside them. No end group written: not given here.

Experiments:
MAS [1] = test system: MAS; set-up: method as in ref [8] (a number printed in a supplementary file, which may have a reference list of its own: not looked up in the article's list); details: Bovine MAS; ref [8]; cited from earlier work
MAS [2] = molecular target: T1, MAS (Homo sapiens, UniProt P04201); assay: FLIPR calcium assay, induced myc-tagged WT MAS HEK293 stable cell line; assay type: cell-based; details: for EC50, Calcium assay / EC50: induced cells
T1 construct: expressed in transfected cells
T1 sequence (P04201 1-325): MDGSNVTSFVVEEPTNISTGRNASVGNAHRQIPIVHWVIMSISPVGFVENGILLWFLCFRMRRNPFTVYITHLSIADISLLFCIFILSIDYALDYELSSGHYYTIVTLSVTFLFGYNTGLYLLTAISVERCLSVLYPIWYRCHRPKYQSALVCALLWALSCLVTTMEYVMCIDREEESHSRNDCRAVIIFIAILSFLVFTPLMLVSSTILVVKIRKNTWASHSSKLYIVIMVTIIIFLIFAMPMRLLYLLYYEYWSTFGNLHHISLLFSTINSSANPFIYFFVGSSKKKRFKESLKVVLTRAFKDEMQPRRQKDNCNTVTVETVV
Protocol: The assay was performed using FLIPR Calcium 5 assay kit (Molecular Devices, Sunnyvale, CA). For calcium measurements, cells at a density of 125,000 cells/well in 100 µl medium were seeded onto a 96-well clear bottom black cell culture plate that was pre-coated with poly-L-lysine. In the calcium assays the cell density of 125,000 cells/well was consistently maintained to minimize variability between independent experiments. The cells were seeded in induction media to induce MAS expression or in complete media for negative controls. The plate was maintained in a cell culture incubator for 26–28 h. The cells were then serum starved for 2 h by replacing the medium with 100 µl of serum free DMEM. In the case of pre-treatment with pan-inhibitor of G protein signaling, BIM-46187, the cells were initially serum starved for 1 h by replacing the medium with 50 µl of serum free DMEM. After 1 h, 50 µl of BIM-46187 was added to the cells to a final concentration of 25 µM and treated for another 1 h. Following serum starvation, 100 µl of calcium sensitive dye along with 2x (2.5 mM final concentration) probenecid (Life Technologies, Grand Island, NY) was added to the cells. During this step, AR-inverse agonist or BIM-46187 was also added at desired concentrations to the calcium dye preparation in case of experiments where cells were pre-treated with these inhibitors. The cells were maintained for one hour in the cell culture incubator. Following this, the 96-well plate containing cells loaded with calcium dye and a U-bottom 96-well plate containing ligands at 5x the desired final concentration in D-PBS (1.47 mM KH2PO4, 138 mM NaCl, 2.67 mM KCl, 8.1 mM Na2HPO4, pH 7.3) were allowed to equilibrate for 15 min on a FlexStation 3 instrument (Molecular Devices, Sunnyvale, CA) at 37°C. The plates were further equilibrated on the instrument for 5 min with the lids removed from the plates. The instrument was programmed in FLEX mode to add ligands (50 µl at 5x concentration) to the cells and to monitor the fluorescence before and after adding the ligands. In re-stimulation and antagonism assays the instrument is programmed to add 35 µl of first ligand followed by addition of the second ligand (35 µl) after 10 min. […] Therefore, when using 5x ligand stock the maximum AR-agonist concentration that could be tested was 10 µM.
In the calcium assays, the maximum response and minimum response values in relative fluorescence units (RFU) were extracted by subtracting the corresponding baseline value wherein baseline is defined as the average fluorescence of all time points before addition of ligand.
(§1) The kinetic parameter t1/2 (time taken to reach half of the maximum response) was determined using SoftMax Pro software supplied with the FlexStation 3 instrument (Molecular Devices, Sunnyvale, CA).
For re-stimulation assays, the data is expressed as the percentage of maximum agonist stimulation to allow for ready comparison between individual experiments. […] For all the assays, the EC50 and IC50 values were estimated by fitting the data to a three parameter dose response using GraphPad Prism software (GraphPad, La Jolla, CA).

MAS [3] = molecular target: T1, MAS; assay: HTRF IP1 assay, induced myc-tagged WT MAS HEK293 stable cell line; assay type: cell-based; details: WT MAS, induced cells
Protocol: IP1 levels in the cells were measured using the IP-One Tb kit (Cisbio US, Bedford, MA). For the assay, cells were seeded onto a 384-well low volume white cell culture plate at a density of 25,000 cells/well in 20 µl of induction or complete medium. In the IP1 assays the cell density of 25,000 cells/well was consistently maintained to minimize variability between independent experiments. The cells were maintained in a cell culture incubator for 26–28 h. The cells were then serum starved for 2 h by replacing the medium with 7 µl of serum free DMEM/F-12. During this step, 7 µl of serum free DMEM/F-12 was also added to the wells to which IP1 standards would be subsequently added. […] The cells were then placed in the cell culture incubator for 4 h. Later, 3 µl each of d2-labeled IP1 and anti-IP1 cryptate Tb conjugated antibody diluted in lysis buffer was added sequentially to all the wells and the plate was incubated overnight in the dark at room temperature. Time-resolved ratiometric fluorescence emission measurements at 665 nm and 620 nm were taken after excitation at 343 nm on FlexStation 3 instrument.
For the IP1 assay, a standard curve was generated using the 4-Parameter logistic equation fit of the HTRF readings of IP1 standards using the SoftMax Pro software. The IP1 concentrations in the experiments were extrapolated based on the standard curve parameters. […] For all the assays, the EC50 and IC50 values were estimated by fitting the data to a three parameter dose response using GraphPad Prism software (GraphPad, La Jolla, CA).

MAS [4] = molecular target: T1, MAS; assay: SRF-RE luciferase reporter assay (Gα12-dependent), induced WT MAS stable cell line; assay type: cell-based; details: induced cells
Protocol: The luciferase assay was performed using pGL4 luciferase reporter vectors and Dual-Glo Luciferase Assay System (Promega, Madison, WI). For this assay, the inducible MAS stable cells were initially plated in a 10 cm plate and left overnight in a cell culture incubator. The following day the cells were transfected with 5 µg of pGL4.34 plasmid containing serum response factor response element (SRF-RE)-firefly luciferase reporter gene and 1 µg of pGL4.73 plasmid containing renilla luciferase (as a transfection efficiency control). […] After 8 h of transfection and induction, the cells were seeded onto a 96-well clear bottom black cell culture plate (pre-coated with poly-L-lysine) at a density of 125,000 cells/well in 100 µl of minimal medium (with reduced serum of 0.5%). The plate was maintained in a cell culture incubator for 18–20 h. At this point 50 µl of media in the cells was replaced with 50 µl of serum free media containing ligands at 2x the desired concentration and incubated for an additional 6 h. Finally, the luciferase activity in the cells was measured according the protocol provided by the manufacturer. The luminescence measurements (RLU) in the cells were obtained on FlexStation 3 instrument.
For re-stimulation assays, the data is expressed as the percentage of maximum agonist stimulation to allow for ready comparison between individual experiments. […] In the luciferase assay, the luminescence measurements (RLU) are presented as a ratio of firefly to renilla luciferase activity. For all the assays, the EC50 and IC50 values were estimated by fitting the data to a three parameter dose response using GraphPad Prism software (GraphPad, La Jolla, CA).

untagged WT MAS = molecular target: T2, untagged WT MAS (Homo sapiens, UniProt P04201); assay: Calcium assay, untagged WT MAS inducible HEK293 stable cell line; assay type: cell-based; details: up to 250 µM
T2 construct: expressed in transfected cells
T2 sequence (P04201 1-325): T1 sequence (P04201 1-325)
Protocol: The assay was performed using FLIPR Calcium 5 assay kit (Molecular Devices, Sunnyvale, CA). For calcium measurements, cells at a density of 125,000 cells/well in 100 µl medium were seeded onto a 96-well clear bottom black cell culture plate that was pre-coated with poly-L-lysine. In the calcium assays the cell density of 125,000 cells/well was consistently maintained to minimize variability between independent experiments. The cells were seeded in induction media to induce MAS expression or in complete media for negative controls. The plate was maintained in a cell culture incubator for 26–28 h. The cells were then serum starved for 2 h by replacing the medium with 100 µl of serum free DMEM. In the case of pre-treatment with pan-inhibitor of G protein signaling, BIM-46187, the cells were initially serum starved for 1 h by replacing the medium with 50 µl of serum free DMEM. After 1 h, 50 µl of BIM-46187 was added to the cells to a final concentration of 25 µM and treated for another 1 h. Following serum starvation, 100 µl of calcium sensitive dye along with 2x (2.5 mM final concentration) probenecid (Life Technologies, Grand Island, NY) was added to the cells. During this step, AR-inverse agonist or BIM-46187 was also added at desired concentrations to the calcium dye preparation in case of experiments where cells were pre-treated with these inhibitors. The cells were maintained for one hour in the cell culture incubator. Following this, the 96-well plate containing cells loaded with calcium dye and a U-bottom 96-well plate containing ligands at 5x the desired final concentration in D-PBS (1.47 mM KH2PO4, 138 mM NaCl, 2.67 mM KCl, 8.1 mM Na2HPO4, pH 7.3) were allowed to equilibrate for 15 min on a FlexStation 3 instrument (Molecular Devices, Sunnyvale, CA) at 37°C. The plates were further equilibrated on the instrument for 5 min with the lids removed from the plates. The instrument was programmed in FLEX mode to add ligands (50 µl at 5x concentration) to the cells and to monitor the fluorescence before and after adding the ligands. […]

MAS [5] = test system: MAS; set-up: method as in ref [2] (a number printed in a supplementary file, which may have a reference list of its own: not looked up in the article's list); details: Mouse MAS; ref [2]; cited from earlier work
MAS [6] = test system: MAS; set-up: method as in ref [2] (a number printed in a supplementary file, which may have a reference list of its own: not looked up in the article's list); details: Mouse MAS; ref [2]; cited from earlier work; remark: listed apart in the source
MAS [7] = molecular target: T1, MAS; set-up: method as in ref [3] (a number printed in a supplementary file, which may have a reference list of its own: not looked up in the article's list); details: ref [3]; cited from earlier work
MAS F112A mutant = molecular target: T3, MAS F112A mutant (Homo sapiens, UniProt P04201, F112A); assay: Calcium assay, F112A MAS mutant stable cell line; assay type: cell-based
T3 construct: expressed in transfected cells
T3 sequence (P04201 1-325 F112A): T1 sequence (P04201 1-325) with F112A
Protocol: (§2) The assay was performed using FLIPR Calcium 5 assay kit (Molecular Devices, Sunnyvale, CA). For calcium measurements, cells at a density of 125,000 cells/well in 100 µl medium were seeded onto a 96-well clear bottom black cell culture plate that was pre-coated with poly-L-lysine. In the calcium assays the cell density of 125,000 cells/well was consistently maintained to minimize variability between independent experiments. The cells were seeded in induction media to induce MAS expression or in complete media for negative controls. The plate was maintained in a cell culture incubator for 26–28 h. The cells were then serum starved for 2 h by replacing the medium with 100 µl of serum free DMEM. In the case of pre-treatment with pan-inhibitor of G protein signaling, BIM-46187, the cells were initially serum starved for 1 h by replacing the medium with 50 µl of serum free DMEM. After 1 h, 50 µl of BIM-46187 was added to the cells to a final concentration of 25 µM and treated for another 1 h. Following serum starvation, 100 µl of calcium sensitive dye along with 2x (2.5 mM final concentration) probenecid (Life Technologies, Grand Island, NY) was added to the cells. During this step, AR-inverse agonist or BIM-46187 was also added at desired concentrations to the calcium dye preparation in case of experiments where cells were pre-treated with these inhibitors. The cells were maintained for one hour in the cell culture incubator. […] The instrument was programmed in FLEX mode to add ligands (50 µl at 5x concentration) to the cells and to monitor the fluorescence before and after adding the ligands. […]
as §1
(§3) For re-stimulation assays, the data is expressed as the percentage of maximum agonist stimulation to allow for ready comparison between individual experiments. […]

MAS I191A mutant = molecular target: T4, MAS I191A mutant (Homo sapiens, UniProt P04201, I191A); assay: Calcium assay, I191A MAS mutant stable cell line; assay type: cell-based
T4 construct: expressed in transfected cells
T4 sequence (P04201 1-325 I191A): T1 sequence (P04201 1-325) with I191A
Protocol: as §2, §1, §3

MAS M244A mutant = molecular target: T5, MAS M244A mutant (Homo sapiens, UniProt P04201, M244A); assay: Calcium assay, M244A MAS mutant stable cell line; assay type: cell-based
T5 construct: expressed in transfected cells
T5 sequence (P04201 1-325 M244A): T1 sequence (P04201 1-325) with M244A
Protocol: as §2, §1, §3

MAS T270A mutant = molecular target: T6, MAS T270A mutant (Homo sapiens, UniProt P04201, T270A); assay: Calcium assay, T270A MAS mutant stable cell line; assay type: cell-based
T6 construct: expressed in transfected cells
T6 sequence (P04201 1-325 T270A): T1 sequence (P04201 1-325) with T270A
Protocol: as §2, §1, §3

MAS [8] = details: Mouse MAS, cited from earlier work
MAS [9] = test system: MAS; set-up: method as in ref [12] (a number printed in a supplementary file, which may have a reference list of its own: not looked up in the article's list); details: Rat MAS; ref [12]; read-out: EC50 (Calcium assay); cited from earlier work
[10] = molecular target: T7, myc-tagged wild-type human MAS receptor (human) (UniProt P04201)
T7 sequence: T1 sequence (P04201 1-325)

MAS [11] = molecular target: T1, MAS; set-up: method as in ref [10,11] (a number printed in a supplementary file, which may have a reference list of its own: not looked up in the article's list); details: ref [10,11], read-out: EC50 (Calcium assay); cited from earlier work
[12] = molecular target: T7, myc-tagged wild-type human MAS receptor (human); remark: listed apart in the source
[13] = WT MAS, t1/2 at 1000 µM (1 mM) ligand concentration
[14] = WT MAS, t1/2 at 100 µM ligand concentration

CCNC(=O)NS(=O)(=O)c1sc(CC(C)C)cc1-c1ccc(Cn2c(-c3ccccc3)nc(OC)c2C=O)cc1 [AVE 0991]
Remarks: Ang(1-7)-like effects (MAS [1]): Mimics Ang(1-7) effects

CC[C@H](C)[C@H](NC(=O)[C@H](Cc1ccc(O)cc1)NC(=O)[C@@H](NC(=O)[C@H](CCCNC(=N)N)NC(=O)[C@@H](N)CC(=O)O)C(C)C)C(=O)N[C@@H](Cc1c[nH]cn1)C(=O)N1CCC[C@H]1C(=O)O [Ang(1–7), angiotensin (1–7)]
EC50, Calcium assay (MAS [2]; WT MAS): cbd
t1/2, Calcium assay (MAS [2]; [13]): 11.8 ± 0.6 s
EC50, IP1 assay (MAS [3]): cbd
EC50, Luciferase assay (MAS [4]): cbd
Calcium response (untagged WT MAS): no response
Type (Arachidonic acid release assay) (MAS [5]): Endogenous agonist
Effect in aortic rings (MAS [6]): Vasodilator effect in aortic rings

CC[C@H](C)[C@H](NC(=O)[C@H](Cc1ccc(O)cc1)NC(=O)[C@@H](NC(=O)[C@H](CCCNC(=N)N)NC(=O)[C@@H](N)CC(=O)O)C(C)C)C(=O)N[C@@H](Cc1c[nH]cn1)C(=O)N1CCC[C@H]1C(N)=O [Ang(1–7)-amide]
EC50, Calcium assay (MAS [2]; WT MAS): cbd
t1/2, Calcium assay (MAS [2]; [13]): 11.4 ± 1.0 s

CC[C@H](C)[C@H](NC(=O)[C@H](Cc1ccc(O)cc1)NC(=O)[C@@H](N)C(C)C)C(=O)N[C@@H](Cc1cnc[nH]1)C(=O)N1CCC[C@H]1C(=O)N[C@@H](Cc1ccccc1)C(=O)O [AngIV / Ang(3–8), Angiotensin IV]
EC50, Calcium assay (MAS [2]; WT MAS): cbd
t1/2, Calcium assay (MAS [2]; [13]): 10.4 ± 0.3 s
Type (Arachidonic acid release assay) (MAS [7]): Agonist

CC[C@H](C)[C@H](NC(=O)[C@H](Cc1ccc(O)cc1)NC(=O)[C@@H](N)C(C)C)C(=O)N[C@@H](Cc1c[nH]cn1)C(=O)N1CCC[C@H]1C(=O)N[C@@H](Cc1ccccc1)C(N)=O [AngIV-amide]
EC50 (MAS [2]; WT MAS): 24.4 ± 1.5 µM
t1/2, Calcium assay (MAS [2]; [14]): 13.7 ± 0.9 s

N[C@@H](CSSC[C@H](N)C(=O)N1CCn2cc(-c3ccccc3)nc2[C@@H]1CC1CCCCC1)C(=O)N1CCn2cc(-c3ccccc3)nc2[C@@H]1CC1CCCCC1 [BIM-46187]
Effect of pre-treatment on AR-agonist calcium signal (MAS [2]; 25 µM pre-treatment): complete loss of signal

CC(C)C[C@H](NC(=O)[C@@H](N)Cc1ccccc1)C(=O)N[C@@H](Cc1ccccc1)C(=O)N[C@@H](CCC(N)=O)C(=O)N1CCC[C@H]1C(=O)N[C@@H](CCC(N)=O)C(=O)N[C@@H](CCCN=C(N)N)C(=O)N[C@@H](Cc1ccccc1)C(N)=O [NPFF, Neuropeptide FF]
t1/2 (time taken to reach half of the maximal calcium response), Calcium assay (MAS [2]; WT MAS): 8.5 ± 0.3 s
t1/2, Calcium assay (MAS F112A mutant): 7.7±2.9^#∧ s
t1/2, Calcium assay (MAS I191A mutant): 9.0 ± 0.4 s
t1/2, Calcium assay (MAS M244A mutant): cbd
t1/2, Calcium assay (MAS T270A mutant): 9.3±2.0^#∧ s

CC[C@H](C)[C@H](NC(=O)[C@H](Cc1ccc(O)cc1)NC(=O)[C@@H](NC(=O)[C@H](CCCN=C(N)N)NC(=O)CNC)C(C)C)C(=O)N[C@@H](Cc1c[nH]cn1)C(=O)N1CCC[C@H]1C(N)=O [[Sar^1]-Ang(1–7)-amide]
EC50 (MAS [2]; WT MAS): 193 ± 59 µM
t1/2, Calcium assay (MAS [2]; [14]): 18.2 ± 1.2 s

CC(C)C[C@H](NC(=O)[C@H](N)Cc1ccc(O)cc1)C(=O)N(C)[C@@H](Cc1ccccc1)C(=O)N[C@@H](CCC(N)=O)C(=O)N1CCC[C@H]1C(=O)N[C@@H](CCC(N)=O)C(=O)N[C@@H](CCCN=C(N)N)C(=O)N[C@@H](Cc1ccccc1)C(N)=O [[^DY^1] [^NMeF^3]-NPFF] (HELM PEPTIDE1{[dY].L.[meF].Q.P.Q.R.F.[am]}$$$$V2.0)
EC50 (MAS [2]; WT MAS): 2.4 ± 0.3 µM

A779: Ang(1–7) analog, sequence DRVYIH^DA (DRVYIH[dA])
EC50, Calcium assay (MAS [2]; WT MAS): cbd
t1/2, Calcium assay (MAS [2]; [14]): cbd ^#
Remarks: effect on Ang(1-7) response (MAS [8]; ref [2,5]): Inhibits Ang(1-7) response

MBP7: peptide agonist, sequence KAQLRRLS
EC50 (MAS [9]): 36.4 µM

NPFF-C (peptide)
EC50, calcium assay, induced WT MAS stable HEK293 cells [10]: 3 µM

P33 / CGEN-857: peptide agonist, sequence SMCHRWSRAVLFPAAHRP
EC50 (MAS [11]): 1000 nM

P61 / CGEN-856: peptide agonist, sequence FLGYCIYLNRKRRGDPAFKRRLRD
EC50 (MAS [11]): 570 nM

VYIHP [Ang(3–7)] [listing 1 of 2 here]
EC50, Calcium assay (MAS [2]; WT MAS): cbd

VYIHP [Ang(3–7)] [listing 2 of 2 here]
t1/2, Calcium assay (MAS [2]; [13]): 15.0 ± 0.5 s

YLFQPQRF-NH2 [[Y^1]-NPFF]
EC50 (MAS [2]; WT MAS): 12.2 ± 2 µM

[^DPro^7]-Ang(1-7)
Remarks: effect on Ang(1-7) response (MAS [8]; ref [6]): Inhibits Ang(1-7) response

YLFQPQRF-NH2 [[Y^1]-NPFF]
EC50, calcium assay, induced WT MAS stable HEK293 cells [10]: 12.2 µM

B1: [Sar^1]-Ang(1–7)-amide (peptide)
peptide: GRVYIHP
HELM: PEPTIDE1{[Sar].R.V.Y.I.H.P.[am]}$$$$V2.0; N-terminus assumed
SMILES: CC[C@H](C)[C@H](NC(=O)[C@H](Cc1ccc(O)cc1)NC(=O)[C@@H](NC(=O)[C@H](CCCNC(=N)N)NC(=O)CNC)C(C)C)C(=O)N[C@@H](Cc1c[nH]cn1)C(=O)N1CCC[C@H]1C(N)=O
EC50, calcium assay, induced WT MAS stable HEK293 cells [12]: 193 µM

B2: [^DY^1] [^NMeF^3]-NPFF (peptide)
peptide: YLFQPQRF
HELM: PEPTIDE1{[dY].L.[meF].Q.P.Q.R.F.[am]}$$$$V2.0; N-terminus assumed
SMILES: CC(C)C[C@H](NC(=O)[C@H](N)Cc1ccc(O)cc1)C(=O)N(C)[C@@H](Cc1ccccc1)C(=O)N[C@@H](CCC(N)=O)C(=O)N1CCC[C@H]1C(=O)N[C@@H](CCC(N)=O)C(=O)N[C@@H](CCCNC(=N)N)C(=O)N[C@@H](Cc1ccccc1)C(N)=O
EC50, calcium assay, induced WT MAS stable HEK293 cells [10]: 2.4 µM

VYIHPF-NH2 [AngIV-amide]
EC50, calcium assay, induced WT MAS stable HEK293 cells (response incompletely inhibited by AR-inverse agonist; non-specific response in un-induced cells at 1 mM) [12]: 24.4 µM

RVYIHPF [AngIII]
EC50, calcium assay, induced WT MAS stable HEK293 cells (response incompletely inhibited by AR-inverse agonist; non-specific response in un-induced cells at 1 mM) [12]: 30.7 µM
